In ChEMBL document CHEMBL1795230, “Conformational variability of different sulfonamide inhibitors with thienyl-acetamido moieties attributes to differential binding in the active site of cytosolic human carbonic anhydrase isoforms” (Bioorg Med Chem, 2011) one finds Ki data, which are given here for two compounds.

A word on the Ki: it is a dissociation constant, usually derived from enzyme kinetics or from competition with a known ligand. The low end stands for higher affinity, the high end for lower affinity.

One assay has as its target Carbonic anhydrase 3 (Homo sapiens, UniProt P07451).
The target of the next assay is Carbonic anhydrase 13 (Homo sapiens, UniProt Q8N1Q1).
Chain of Carbonic anhydrase 13 (Q8N1Q1 whole entry): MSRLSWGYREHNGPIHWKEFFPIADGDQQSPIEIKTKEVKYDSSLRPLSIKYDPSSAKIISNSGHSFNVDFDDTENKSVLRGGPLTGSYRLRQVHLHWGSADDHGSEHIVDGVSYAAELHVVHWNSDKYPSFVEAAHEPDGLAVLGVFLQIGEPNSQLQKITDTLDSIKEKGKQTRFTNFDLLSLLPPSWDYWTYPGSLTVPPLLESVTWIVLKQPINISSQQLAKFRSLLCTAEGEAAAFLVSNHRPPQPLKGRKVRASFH

Chain of Carbonic anhydrase 3 (P07451 whole entry): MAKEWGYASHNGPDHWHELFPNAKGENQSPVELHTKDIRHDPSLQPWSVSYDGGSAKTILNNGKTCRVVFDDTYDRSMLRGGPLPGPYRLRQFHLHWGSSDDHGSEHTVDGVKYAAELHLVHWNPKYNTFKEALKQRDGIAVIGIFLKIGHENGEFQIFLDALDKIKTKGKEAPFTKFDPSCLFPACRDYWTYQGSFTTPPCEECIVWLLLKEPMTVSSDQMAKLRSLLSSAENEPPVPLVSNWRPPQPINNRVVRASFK

For `NS(=O)(=O)c1ccc(NC(=O)Cc2cccs2)cc1`, the values for the Ki on Carbonic anhydrase 3 and at Carbonic anhydrase 13 were 800000 nM and 125 nM, respectively.
Compound `NS(=O)(=O)c1cc(Cl)c(Cl)c(S(N)(=O)=O)c1` [DICHLORPHENAMIDE] displayed a Ki at Carbonic anhydrase 13 of 23 nM.
